Converted amounts (≈) assume the structure as drawn.
Test system: A. baumannii
Assay: microbe, parasite or virus in culture
In short: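 Broth microdilution following CLSI M07 and M100. Inocula were diluted from a 0.5 McFarland suspension in CAMHB. MIC is the lowest compound concentration inhibiting visible growth, or beyond which OD600 ceased to decrease.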

Q: What does the source list for `CN1C(=O)[C@H](CCCCN)NC(=O)[C@H](CCCN)NCc2cccnc2Sc2c(Cl)ccc(Cl)c2CNC(=O)[C@@H]1Cc1c[nH]c2ccccc12` [RO7075573]?
A: MIC 80% (ROB08702, Study LGC286210): 0.12 µg/mL (≈ 0.162 µM); MIC 100% (ROB08702, Study LGC286210): >64 µg/mL; MIC 80% (ROB08702, Study LGC293598): 0.12 µg/mL (≈ 0.162 µM); MIC 100% (ROB08702, Study LGC293598): >64 µg/mL; MIC 80% (ROB08702, Study LGC294355): 0.12 µg/mL (≈ 0.162 µM); MIC 100% (ROB08702, Study LGC294355): >64 µg/mL; MIC 80% (ROB08702, Study LGC295147): 0.12 µg/mL (≈ 0.162 µM); MIC 100% (ROB08702, Study LGC295147): 64 µg/mL (≈ 86.5 µM); MIC 80% (ROB08702, Study LGC296813): 0.12 µg/mL (≈ 0.162 µM); MIC 100% (ROB08702, Study LGC296813): 64 µg/mL (≈ 86.5 µM); MIC 80% (ROB08702, Study LGC299544): 0.12 µg/mL (≈ 0.162 µM); MIC 100% (ROB08702, Study LGC299544): 64 µg/mL (≈ 86.5 µM); MIC 80% (ROB08702, Study LGC301026): 0.12 µg/mL (≈ 0.162 µM); MIC 100% (ROB08702, Study LGC301026): 64 µg/mL (≈ 86.5 µM); MIC 80% (ROB08702, Study LGC308175): 0.12 µg/mL (≈ 0.162 µM); MIC 100% (ROB08702, Study LGC308175): 64 µg/mL (≈ 86.5 µM); MIC 80% (ROB08702, Study ROC010): 0.25 µg/mL (≈ 0.338 µM); MIC 100% (ROB08702, Study ROC010): 32 µg/mL (≈ 43.3 µM); MIC 80% (ROB08702, Study ROC012): 0.12 µg/mL (≈ 0.162 µM); MIC 100% (ROB08702, Study ROC012): 64 µg/mL (≈ 86.5 µM); MIC 80% (ROB08703, Study LGC281440): 0.25 µg/mL (≈ 0.338 µM); MIC 100% (ROB08703, Study LGC281440): 16 µg/mL (≈ 21.6 µM); MIC 80% (ROB08703, Study LGC282160): 0.25 µg/mL (≈ 0.338 µM); MIC 100% (ROB08703, Study LGC282160): 64 µg/mL (≈ 86.5 µM); MIC 80% (ROB08703, Study LGC284879): 0.5 µg/mL (≈ 0.676 µM); MIC 100% (ROB08703, Study LGC284879): >64 µg/mL; MIC 80% (ROB08703, Study LGC285582): 0.25 µg/mL (≈ 0.338 µM); MIC 100% (ROB08703, Study LGC285582): 64 µg/mL (≈ 86.5 µM); MIC 80% (ROB08703, Study LGC286210): 0.25 µg/mL (≈ 0.338 µM); MIC 100% (ROB08703, Study LGC286210): 64 µg/mL (≈ 86.5 µM); MIC 80% (ROB08703, Study LGC293598): 0.12 µg/mL (≈ 0.162 µM); MIC 100% (ROB08703, Study LGC293598): >64 µg/mL; MIC 80% (ROB08703, Study LGC294355): >64 µg/mL; MIC 100% (ROB08703, Study LGC294355): >64 µg/mL; MIC 80% (ROB08703, Study LGC295147): 0.25 µg/mL (≈ 0.338 µM); MIC 100% (ROB08703, Study LGC295147): 64 µg/mL (≈ 86.5 µM); MIC 80% (ROB08703, Study LGC296813): 0.5 µg/mL (≈ 0.676 µM); MIC 100% (ROB08703, Study LGC296813): 64 µg/mL (≈ 86.5 µM); MIC 80% (ROB08703, Study LGC299544): 0.5 µg/mL (≈ 0.676 µM); MIC 100% (ROB08703, Study LGC299544): 64 µg/mL (≈ 86.5 µM); MIC 80% (ROB08703, Study LGC301026): 0.25 µg/mL (≈ 0.338 µM); MIC 100% (ROB08703, Study LGC301026): 64 µg/mL (≈ 86.5 µM); MIC 80% (ROB08703, Study LGC308175): 0.25 µg/mL (≈ 0.338 µM); MIC 100% (ROB08703, Study LGC308175): 64 µg/mL (≈ 86.5 µM); MIC 80% (ROB08703, Study ROC010): 0.5 µg/mL (≈ 0.676 µM); MIC 100% (ROB08703, Study ROC010): 0.5 µg/mL (≈ 0.676 µM); MIC 80% (ROB08703, Study ROC012): 0.25 µg/mL (≈ 0.338 µM); MIC 100% (ROB08703, Study ROC012): 64 µg/mL (≈ 86.5 µM); MIC 80% (ROB08704, Study LGC281440): 0.5 µg/mL (≈ 0.676 µM); MIC 100% (ROB08704, Study LGC281440): 16 µg/mL (≈ 21.6 µM); MIC 80% (ROB08704, Study LGC282160): 0.25 µg/mL (≈ 0.338 µM); MIC 100% (ROB08704, Study LGC282160): 64 µg/mL (≈ 86.5 µM); MIC 80% (ROB08704, Study LGC284879): 0.5 µg/mL (≈ 0.676 µM); MIC 100% (ROB08704, Study LGC284879): >64 µg/mL; MIC 80% (ROB08704, Study LGC285582): 0.25 µg/mL (≈ 0.338 µM); MIC 100% (ROB08704, Study LGC285582): 64 µg/mL (≈ 86.5 µM); MIC 80% (ROB08704, Study LGC286210): 0.5 µg/mL (≈ 0.676 µM); MIC 100% (ROB08704, Study LGC286210): 32 µg/mL (≈ 43.3 µM); MIC 80% (ROB08704, Study LGC293598): 0.5 µg/mL (≈ 0.676 µM); MIC 100% (ROB08704, Study LGC293598): >64 µg/mL; MIC 80% (ROB08704, Study LGC294355): 0.5 µg/mL (≈ 0.676 µM); MIC 100% (ROB08704, Study LGC294355): >64 µg/mL; MIC 80% (ROB08704, Study LGC295147): 0.5 µg/mL (≈ 0.676 µM); MIC 100% (ROB08704, Study LGC295147): 64 µg/mL (≈ 86.5 µM); MIC 80% (ROB08704, Study LGC296813): 0.5 µg/mL (≈ 0.676 µM); MIC 100% (ROB08704, Study LGC296813): 32 µg/mL (≈ 43.3 µM); MIC 80% (ROB08704, Study LGC299544): 0.5 µg/mL (≈ 0.676 µM); MIC 100% (ROB08704, Study LGC299544): 64 µg/mL (≈ 86.5 µM); MIC 80% (ROB08704, Study LGC301026): 0.5 µg/mL (≈ 0.676 µM); MIC 100% (ROB08704, Study LGC301026): 64 µg/mL (≈ 86.5 µM); MIC 80% (ROB08704, Study LGC308175): 0.25 µg/mL (≈ 0.338 µM); MIC 100% (ROB08704, Study LGC308175): 32 µg/mL (≈ 43.3 µM); MIC 80% (ROB08704, Study ROC010): 0.5 µg/mL (≈ 0.676 µM); MIC 100% (ROB08704, Study ROC010): 1 µg/mL (≈ 1.35 µM); MIC 80% (ROB08704, Study ROC012): 0.25 µg/mL (≈ 0.338 µM); MIC 100% (ROB08704, Study ROC012): 32 µg/mL (≈ 43.3 µM); MIC 80% (ROB08705, Study LGC281440): ≤0.06 µg/mL; MIC 100% (ROB08705, Study LGC281440): ≤0.06 µg/mL; MIC 80% (ROB08705, Study LGC282160): 0.12 µg/mL (≈ 0.162 µM); MIC 100% (ROB08705, Study LGC282160): 32 µg/mL (≈ 43.3 µM); MIC 80% (ROB08705, Study LGC284879): ≤0.06 µg/mL; MIC 100% (ROB08705, Study LGC284879): 0.12 µg/mL (≈ 0.162 µM); MIC 80% (ROB08705, Study LGC285582): ≤0.06 µg/mL; MIC 100% (ROB08705, Study LGC285582): ≤0.06 µg/mL; MIC 80% (ROB08705, Study LGC286210): ≤0.06 µg/mL; MIC 100% (ROB08705, Study LGC286210): ≤0.06 µg/mL; MIC 80% (ROB08705, Study LGC293598): ≤0.06 µg/mL

— PMC10794144, “A novel antibiotic class targeting the lipopolysaccharide transporter” (Nature, 2024)
